Source: patent publication US11965199B2, “21-hydroxylation of steroids” (EUROAPI, priority 2014, dated 2024)
Where two headings read alike, the source gives them in different places.

Legend:
[1] = molecular target: T1, bovine CYP21 (Bos taurus, UniProt P00191); assay: Whole cell biotransformation (21-hydroxylation) in E. coli C43(DE3); format: cell-based
T1 construct: lacking the hydrophobic anchor region, i.e. a truncation of 29 N-terminal amino acid residues; 6xHis (C); expressed in transfected cells
T1 sequence (P00191 with tags, fused parts or gaps): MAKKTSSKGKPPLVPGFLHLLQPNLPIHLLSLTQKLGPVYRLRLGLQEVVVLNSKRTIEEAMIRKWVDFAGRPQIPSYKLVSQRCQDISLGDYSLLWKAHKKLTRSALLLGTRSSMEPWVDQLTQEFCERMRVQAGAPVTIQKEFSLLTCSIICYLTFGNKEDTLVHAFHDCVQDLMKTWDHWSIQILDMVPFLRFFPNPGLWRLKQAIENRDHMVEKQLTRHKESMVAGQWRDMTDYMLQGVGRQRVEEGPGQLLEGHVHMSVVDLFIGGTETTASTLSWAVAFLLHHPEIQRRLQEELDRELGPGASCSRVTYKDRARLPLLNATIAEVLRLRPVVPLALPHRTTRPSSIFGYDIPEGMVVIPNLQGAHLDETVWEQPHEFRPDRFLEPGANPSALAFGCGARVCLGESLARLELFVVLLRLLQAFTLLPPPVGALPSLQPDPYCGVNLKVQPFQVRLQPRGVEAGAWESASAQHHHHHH

[2] = molecular target: T2, human CYP21 (Homo sapiens, UniProt P08686); assay: as above; format: cell-based; parameters: lacking the hydrophobic anchor region, i.e. a truncation of 29 N-terminal amino acid residues; 6xHis (C); expressed in transfected cells; host or cells: E. coli C43(DE3) transformed with pET17b-based bi-/tricistronic vectors (p21h_...) and pGro12
T2 sequence (P08686 with tags, fused parts or gaps): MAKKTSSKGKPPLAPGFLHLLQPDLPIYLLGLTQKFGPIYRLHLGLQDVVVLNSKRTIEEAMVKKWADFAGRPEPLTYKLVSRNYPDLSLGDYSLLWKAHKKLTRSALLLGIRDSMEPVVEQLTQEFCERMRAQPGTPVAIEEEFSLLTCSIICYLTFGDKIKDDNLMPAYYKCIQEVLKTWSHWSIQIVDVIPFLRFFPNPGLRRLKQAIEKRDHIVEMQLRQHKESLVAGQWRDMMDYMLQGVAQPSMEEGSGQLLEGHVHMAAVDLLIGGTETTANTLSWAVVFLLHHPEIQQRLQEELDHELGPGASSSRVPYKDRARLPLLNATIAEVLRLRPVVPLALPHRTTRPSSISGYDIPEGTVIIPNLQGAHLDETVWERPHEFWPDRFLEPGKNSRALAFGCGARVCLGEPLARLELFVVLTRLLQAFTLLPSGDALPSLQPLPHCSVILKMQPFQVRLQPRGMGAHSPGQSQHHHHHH

[3] = molecular target: T1, bovine CYP21; assay: In vitro substrate conversion with purified enzymes (reconstituted cytochrome P450 system); format: biochemical; conditions: defined buffer, NADPH regeneration system, electron transfer proteins of Table 2
Experimental: (§1) Both enzymes were expressed in the E. coli strain C43(DE3) by coexpression of the E. coli chaperones GroEL/GroES encoded in the vector pGro12. These chaperones ensure a correct protein folding which is important for an incorporation of the heme prosthetic group. In FIG. 3 an SDS-PAGE and a CO difference spectrum of purified bovine CYP21 are shown. […] To determine the binding of medrane to both isozymes the binding constants (KD-values) were determined.
(§2) For an efficient substrate conversion, both isoforms require an electron transfer system which consists of two parts, the cytochrome P450 enzyme itself and one or two electron transfer proteins which are essential for a hydroxylation reaction. Without these transfer proteins, no reaction will take place.
(§3) For in vitro studies and a verification of a substrate conversion, all redox partners were purified.

[4] = molecular target: T2, human CYP21; assay: as above; format: biochemical; parameters: lacking the hydrophobic anchor region, i.e. a truncation of 29 N-terminal amino acid residues; 6xHis (C); made in house; host or cells: E. coli C43(DE3), co-expressing GroEL/GroES from pGro12; conditions: defined buffer, NADPH regeneration system, electron transfer proteins of Table 2
Experimental: as §1, §2, §3

[5] = bovine CYP21 with redox partners, GroEL/GroES co-expressed
[6] = human CYP21 with redox partners, GroEL/GroES co-expressed

Compound	hydroxylation at position 21 (steroid conversion) [1]	hydroxylation at position 21 (steroid conversion) [2]	hydroxylation at position 21 (steroid conversion) [1, 5]	hydroxylation at position 21 (steroid conversion) [2, 6]	in vitro conversion of medrane to premedrol [3]	in vitro conversion of medrane to premedrol [4]
CC(=O)[C@H]1CC[C@H]2[C@@H]3CC[C@H]4CC(=O)CC[C@]4(C)[C@H]3CC[C@]12C [5α-dihydroprogesterone]	able to hydroxylate	able to hydroxylate	–	–	–	–
CC(=O)[C@@]1(O)CC[C@H]2[C@@H]3C[C@H](C)C4=CC(=O)C=C[C@]4(C)[C@H]3[C@@H](O)C[C@@]21C [Deltamedrane, deltamedrane]	–	–	able to hydroxylate	able to hydroxylate	–	–
CC(=O)[C@@]1(O)CCC2C3C[C@H](C)C4=CC(=O)CC[C@]4(C)C3[C@@H](O)C[C@@]21C (stereo partly drawn) [Medrane, medrane]	–	–	able to hydroxylate	able to hydroxylate	very efficiently	very efficiently
CC(=O)[C@H]1CC[C@H]2[C@@H]3CCC4=CC(=O)CC[C@]4(C)[C@H]3CC[C@]12C [Progesterone, progesterone]	–	–	able to hydroxylate	able to hydroxylate	–	–
medroxyprogesterone	able to hydroxylate	able to hydroxylate	–	–	–	–
